Measured values from patent publication US9611249B2, “1H-indazole-3-carboxamide compounds as glycogen synthase kinase 3 beta inhibitors” (AZIENDE CHIMICHE RIUNITE ANGELINI FRANCESCO A.C.R.A.F. …, priority 2012, dated 2017).

Key:
DYRK1a (h) = DYRK1a (h) (Homo sapiens (Human), UniProt Q13627); assay: Kinase selectivity panel: DYRK1a (h); format: biochemical; settings: 10 μM in duplicate, read-out: % inhibition of control values
Experimental: (§1) (a) Compounds 1 and 2 were tested against a panel of 60 kinases in order to assess their selectivity. The assays were chosen taking into consideration the diversity of assay families.
(§2) Tested kinases were representative of following kinase sub-families: • protein-serine/threonine kinases; • protein-tyrosine kinases; • other kinases; and • atypical kinases.
(§3) Human recombinant kinases were incubated in the presence of specific peptide substrates plus ATP for different times (10, 15, 30, 60 or 90 minutes) at 22° C. Phosphorylated substrate was detected by LANCE or HTRF technology (CISBIO, MA, USA). The compounds were tested at 10 μM in duplicate.
(§4) The results are expressed as a percentage of inhibition of control specific activity obtained in the presence of the test compounds and are reported in the following Table 5.
(§5) (b) Compounds 3, 8, 29 and 31 were tested against the same panel of 60 kinases under the same conditions described above for compounds 1 and 2.
(§6) The results are expressed as a percent of inhibition of control specific activity obtained in the presence of the test compounds and are reported in the following Table 6.

smMLCK (h) (MYLK) = smMLCK (h) (MYLK) (Homo sapiens (Human), UniProt Q15746); assay: Kinase selectivity panel: smMLCK (h) (MYLK); format: biochemical; settings: 10 μM in duplicate, read-out: % inhibition of control values
Sequence of smMLCK (h) (MYLK) (Q15746 whole entry): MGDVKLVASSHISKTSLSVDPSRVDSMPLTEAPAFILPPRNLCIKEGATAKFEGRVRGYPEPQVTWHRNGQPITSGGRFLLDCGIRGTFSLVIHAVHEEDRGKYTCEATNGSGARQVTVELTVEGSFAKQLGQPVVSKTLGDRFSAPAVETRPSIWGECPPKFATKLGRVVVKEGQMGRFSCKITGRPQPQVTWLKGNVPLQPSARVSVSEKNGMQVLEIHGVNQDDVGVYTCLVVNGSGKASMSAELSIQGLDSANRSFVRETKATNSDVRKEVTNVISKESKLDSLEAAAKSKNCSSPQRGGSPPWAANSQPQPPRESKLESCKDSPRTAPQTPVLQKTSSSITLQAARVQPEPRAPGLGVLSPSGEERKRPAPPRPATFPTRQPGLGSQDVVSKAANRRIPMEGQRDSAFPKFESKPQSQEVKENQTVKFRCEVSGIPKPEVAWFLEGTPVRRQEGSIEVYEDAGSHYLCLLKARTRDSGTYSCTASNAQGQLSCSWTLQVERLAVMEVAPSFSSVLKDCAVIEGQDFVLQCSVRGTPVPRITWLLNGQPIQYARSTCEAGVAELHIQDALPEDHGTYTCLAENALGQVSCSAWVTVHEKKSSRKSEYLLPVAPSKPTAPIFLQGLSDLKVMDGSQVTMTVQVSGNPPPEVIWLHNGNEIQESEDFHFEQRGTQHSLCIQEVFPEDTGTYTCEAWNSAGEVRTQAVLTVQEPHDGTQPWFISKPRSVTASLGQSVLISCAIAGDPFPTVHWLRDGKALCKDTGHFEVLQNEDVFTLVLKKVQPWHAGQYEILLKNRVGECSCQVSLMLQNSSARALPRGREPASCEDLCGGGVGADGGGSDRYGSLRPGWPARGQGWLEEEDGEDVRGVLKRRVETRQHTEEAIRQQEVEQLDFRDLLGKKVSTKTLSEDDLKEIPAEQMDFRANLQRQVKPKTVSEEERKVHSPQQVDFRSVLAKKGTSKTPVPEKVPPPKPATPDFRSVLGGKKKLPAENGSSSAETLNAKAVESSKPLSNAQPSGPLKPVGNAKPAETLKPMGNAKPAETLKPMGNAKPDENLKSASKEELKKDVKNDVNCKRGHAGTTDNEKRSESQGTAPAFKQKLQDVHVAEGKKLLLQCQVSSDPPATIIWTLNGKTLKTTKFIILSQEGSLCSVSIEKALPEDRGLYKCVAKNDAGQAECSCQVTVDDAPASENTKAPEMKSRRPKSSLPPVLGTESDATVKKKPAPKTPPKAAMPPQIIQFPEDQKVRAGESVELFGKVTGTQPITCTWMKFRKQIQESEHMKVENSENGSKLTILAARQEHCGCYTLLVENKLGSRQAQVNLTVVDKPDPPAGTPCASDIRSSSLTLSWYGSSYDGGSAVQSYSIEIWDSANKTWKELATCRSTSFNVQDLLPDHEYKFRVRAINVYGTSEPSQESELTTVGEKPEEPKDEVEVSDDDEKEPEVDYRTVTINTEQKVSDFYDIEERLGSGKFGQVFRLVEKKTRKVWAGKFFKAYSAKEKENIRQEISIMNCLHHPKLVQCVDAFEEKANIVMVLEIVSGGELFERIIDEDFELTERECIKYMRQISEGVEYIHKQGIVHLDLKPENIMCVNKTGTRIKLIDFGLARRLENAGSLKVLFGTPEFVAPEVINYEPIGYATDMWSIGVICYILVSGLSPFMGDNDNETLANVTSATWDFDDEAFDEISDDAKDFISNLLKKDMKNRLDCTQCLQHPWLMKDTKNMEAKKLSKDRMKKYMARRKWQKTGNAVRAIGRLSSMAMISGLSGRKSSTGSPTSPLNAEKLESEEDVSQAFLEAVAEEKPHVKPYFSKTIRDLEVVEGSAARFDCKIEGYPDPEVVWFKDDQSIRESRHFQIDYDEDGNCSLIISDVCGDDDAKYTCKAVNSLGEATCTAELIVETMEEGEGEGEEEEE
Experimental: as §1, §2, §3, §4, §5, §6

MEK1/MAP2K1 (h) = MEK1/MAP2K1 (h) (Homo sapiens (Human), UniProt Q02750); assay: Kinase selectivity panel: MEK1/MAP2K1 (h); format: biochemical; settings: 10 μM in duplicate, read-out: % inhibition of control values
Sequence of MEK1/MAP2K1 (h) (Q02750 whole entry): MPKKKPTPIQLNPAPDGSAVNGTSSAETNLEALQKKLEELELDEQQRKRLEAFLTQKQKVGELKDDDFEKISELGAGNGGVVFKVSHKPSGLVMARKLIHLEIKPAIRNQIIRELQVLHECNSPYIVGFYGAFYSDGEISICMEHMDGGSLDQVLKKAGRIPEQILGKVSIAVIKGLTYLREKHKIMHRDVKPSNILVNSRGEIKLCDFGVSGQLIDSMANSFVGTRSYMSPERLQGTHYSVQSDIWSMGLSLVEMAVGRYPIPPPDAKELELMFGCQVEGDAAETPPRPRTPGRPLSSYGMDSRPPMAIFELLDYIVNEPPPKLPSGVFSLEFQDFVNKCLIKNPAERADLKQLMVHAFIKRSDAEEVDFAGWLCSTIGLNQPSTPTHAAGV
Experimental: as §1, §2, §3, §4, §5, §6

CDC2/CDK1 (h) (cycB) = CDC2/CDK1 (h) (cycB) (Homo sapiens (Human), UniProt P06493); assay: Kinase selectivity panel: CDC2/CDK1 (h) (cycB); format: biochemical; settings: 10 μM in duplicate, read-out: % inhibition of control values
Sequence of CDC2/CDK1 (h) (cycB) (P06493 whole entry): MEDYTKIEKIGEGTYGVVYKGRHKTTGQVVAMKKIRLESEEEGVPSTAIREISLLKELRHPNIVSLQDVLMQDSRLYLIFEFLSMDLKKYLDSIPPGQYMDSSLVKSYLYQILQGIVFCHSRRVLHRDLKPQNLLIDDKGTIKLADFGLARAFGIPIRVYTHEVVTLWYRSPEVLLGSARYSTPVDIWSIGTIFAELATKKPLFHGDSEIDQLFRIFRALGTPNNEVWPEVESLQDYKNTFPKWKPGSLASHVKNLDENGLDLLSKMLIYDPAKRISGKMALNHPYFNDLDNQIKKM
Sequence of CDC2/CDK1 (h) (cycB) (P14635 whole entry partner): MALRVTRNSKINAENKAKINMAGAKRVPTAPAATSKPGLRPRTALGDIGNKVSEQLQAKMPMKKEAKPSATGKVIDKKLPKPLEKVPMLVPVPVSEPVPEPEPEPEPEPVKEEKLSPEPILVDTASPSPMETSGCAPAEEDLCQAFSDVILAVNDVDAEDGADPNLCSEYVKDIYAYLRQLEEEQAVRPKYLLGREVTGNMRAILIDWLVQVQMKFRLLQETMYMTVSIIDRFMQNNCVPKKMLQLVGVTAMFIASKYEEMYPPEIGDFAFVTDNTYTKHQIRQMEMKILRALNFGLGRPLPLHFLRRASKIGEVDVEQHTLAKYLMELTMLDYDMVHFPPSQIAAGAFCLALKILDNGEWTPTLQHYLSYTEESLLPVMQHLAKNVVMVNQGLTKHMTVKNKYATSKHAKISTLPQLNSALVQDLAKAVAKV
Experimental: as §1, §2, §3, §4, §5, §6

IRK (h) (InsR) = IRK (h) (InsR) (Homo sapiens (Human), UniProt P06213); assay: Kinase selectivity panel: IRK (h) (InsR); format: biochemical; settings: 10 μM in duplicate, read-out: % inhibition of control values
Experimental: as §1, §2, §3, §4, §5, §6

GSK3beta (h) = GSK3beta (h) (Homo sapiens (Human), UniProt P49841); assay: Kinase selectivity panel: GSK3beta (h); format: biochemical; settings: for inhibition at 10 µM: GSK3beta (h), 10 μM in duplicate, read-out: % inhibition of control values; for selectivity for GSK-3β compared to the other kinases of the panel: panel of 60 kinases, 10 μM, conclusion in words
Sequence of GSK3beta (h) (P49841 whole entry): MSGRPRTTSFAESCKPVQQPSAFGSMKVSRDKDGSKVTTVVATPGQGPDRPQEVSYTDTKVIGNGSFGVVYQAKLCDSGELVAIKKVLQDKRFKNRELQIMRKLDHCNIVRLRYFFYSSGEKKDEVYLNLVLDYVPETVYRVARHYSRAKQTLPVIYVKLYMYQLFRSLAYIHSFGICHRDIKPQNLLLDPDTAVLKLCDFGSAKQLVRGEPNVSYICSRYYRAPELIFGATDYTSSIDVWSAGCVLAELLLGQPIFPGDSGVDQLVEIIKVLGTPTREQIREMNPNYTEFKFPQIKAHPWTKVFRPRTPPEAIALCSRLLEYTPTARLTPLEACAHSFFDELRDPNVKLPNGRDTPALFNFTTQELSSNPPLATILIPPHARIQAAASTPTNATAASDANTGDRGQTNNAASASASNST
Experimental: as §1, §2, §3, §4, §6

NEK1 (h) = NEK1 (h) (Homo sapiens (Human), UniProt Q96PY6); assay: Kinase selectivity panel: NEK1 (h); format: biochemical; settings: 10 μM in duplicate, read-out: % inhibition of control values
Experimental: as §1, §2, §3, §4, §5, §6

ERK2 (h) (P42mapk) = ERK2 (h) (P42mapk) (Homo sapiens (Human), UniProt P28482); assay: Kinase selectivity panel: ERK2 (h) (P42mapk); format: biochemical; settings: 10 μM in duplicate, read-out: % inhibition of control values
Sequence of ERK2 (h) (P42mapk) (P28482 whole entry): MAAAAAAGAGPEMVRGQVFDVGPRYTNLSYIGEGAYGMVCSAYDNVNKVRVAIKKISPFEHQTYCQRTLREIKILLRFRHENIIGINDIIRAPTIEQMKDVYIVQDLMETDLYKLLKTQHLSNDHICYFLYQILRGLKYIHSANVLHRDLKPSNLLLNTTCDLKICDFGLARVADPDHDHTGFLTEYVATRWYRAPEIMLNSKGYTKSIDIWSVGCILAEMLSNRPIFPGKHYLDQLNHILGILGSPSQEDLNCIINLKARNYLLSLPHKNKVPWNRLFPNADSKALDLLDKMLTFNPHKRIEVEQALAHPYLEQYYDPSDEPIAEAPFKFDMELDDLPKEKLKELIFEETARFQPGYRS
Experimental: as §1, §2, §3, §4, §5, §6

TRKA (h) = TRKA (h) (Homo sapiens (Human), UniProt P04629); assay: Kinase selectivity panel: TRKA (h); format: biochemical; settings: 10 μM in duplicate, read-out: % inhibition of control values
Experimental: as §1, §2, §3, §4, §5, §6

Src kinase (h) = Src kinase (h) (Homo sapiens (Human), UniProt P12931); assay: Kinase selectivity panel: Src kinase (h); format: biochemical; settings: 10 μM in duplicate, read-out: % inhibition of control values
Experimental: as §1, §2, §3, §4, §5, §6

PCTAIRE1 kinase (h) = PCTAIRE1 kinase (h) (Homo sapiens (Human), UniProt Q00536); assay: Kinase selectivity panel: PCTAIRE1 kinase (h); format: biochemical; settings: 10 μM in duplicate, read-out: % inhibition of control values
Experimental: as §1, §2, §3, §4, §5, §6

human GSK-3β = human GSK-3β (Homo sapiens (Human), UniProt P49841); assay: GSK-3β LanthaScreen TR-FRET Eu Kinase binding and displacement assay; settings: compounds 16 to 41, LanthaScreen TR-FRET binding and displacement assay, five concentrations 100 μM to 10 nM
Experimental: In a second assay, the same compounds were assayed at five concentrations ranging from 100 μM to 10 nM with ten-fold dilutions in duplicate. Compounds 1 to 15 were tested using the same first assay, compounds 16 to 41 were tested in another assay based on the binding and displacement of AlexaFluor® 647 labeled, ATP-competitive Kinase inhibitor scaffold using LanthaScreen™ TR-FRET technology Eu Kinase assay packet according to manufacturer's instruction (Life Technologies, Italy).
The IC50 values (concentration causing a half maximal inhibition of control specific activity), reported in table 4, were determined by non-linear regression analysis of the inhibition curves generated with mean replicate values using Hill equation curve fitting.

CDK2 (h) (cycA) = CDK2 (h) (cycA) (Homo sapiens (Human), UniProt P24941); assay: Kinase selectivity panel: CDK2 (h) (cycA); format: biochemical; settings: 10 μM in duplicate, read-out: % inhibition of control values
Experimental: as §1, §2, §3, §4, §5, §6

HGK (h) (MAP4K4) = HGK (h) (MAP4K4) (Homo sapiens (Human), UniProt O95819); assay: Kinase selectivity panel: HGK (h) (MAP4K4); format: biochemical; settings: 10 μM in duplicate, read-out: % inhibition of control values
Sequence of HGK (h) (MAP4K4) (O95819 whole entry): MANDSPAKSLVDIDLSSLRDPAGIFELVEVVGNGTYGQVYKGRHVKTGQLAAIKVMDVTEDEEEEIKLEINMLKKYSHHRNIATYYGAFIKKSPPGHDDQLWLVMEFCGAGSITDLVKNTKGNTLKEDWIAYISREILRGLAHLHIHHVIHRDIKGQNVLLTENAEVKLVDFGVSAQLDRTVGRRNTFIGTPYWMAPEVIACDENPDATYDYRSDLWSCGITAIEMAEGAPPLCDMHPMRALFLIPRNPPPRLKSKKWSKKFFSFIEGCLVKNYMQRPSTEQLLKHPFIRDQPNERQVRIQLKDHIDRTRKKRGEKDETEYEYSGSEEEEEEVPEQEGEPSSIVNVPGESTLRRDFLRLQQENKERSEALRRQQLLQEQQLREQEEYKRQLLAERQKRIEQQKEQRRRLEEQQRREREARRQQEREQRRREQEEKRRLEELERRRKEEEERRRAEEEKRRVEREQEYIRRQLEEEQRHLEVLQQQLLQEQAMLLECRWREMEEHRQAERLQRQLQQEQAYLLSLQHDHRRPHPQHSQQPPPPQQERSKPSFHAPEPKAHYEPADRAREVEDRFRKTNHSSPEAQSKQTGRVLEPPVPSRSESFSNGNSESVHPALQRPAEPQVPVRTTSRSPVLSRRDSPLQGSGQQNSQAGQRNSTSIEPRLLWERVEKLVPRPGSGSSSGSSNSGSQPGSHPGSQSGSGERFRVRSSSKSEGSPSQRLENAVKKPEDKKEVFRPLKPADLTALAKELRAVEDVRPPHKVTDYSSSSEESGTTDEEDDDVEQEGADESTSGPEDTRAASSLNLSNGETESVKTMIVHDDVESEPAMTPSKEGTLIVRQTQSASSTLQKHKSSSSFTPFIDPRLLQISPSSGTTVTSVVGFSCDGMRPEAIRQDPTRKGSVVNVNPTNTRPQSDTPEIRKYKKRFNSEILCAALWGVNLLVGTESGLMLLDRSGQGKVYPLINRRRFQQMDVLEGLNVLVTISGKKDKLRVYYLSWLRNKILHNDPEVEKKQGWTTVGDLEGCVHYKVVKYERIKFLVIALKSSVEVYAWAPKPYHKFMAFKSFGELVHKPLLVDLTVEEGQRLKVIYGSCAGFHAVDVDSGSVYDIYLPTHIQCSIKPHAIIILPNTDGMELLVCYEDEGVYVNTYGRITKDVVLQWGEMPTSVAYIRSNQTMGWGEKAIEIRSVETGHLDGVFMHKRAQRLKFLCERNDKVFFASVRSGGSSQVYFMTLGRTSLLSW
Experimental: as §1, §2, §3, §4, §5, §6

CDK5/p35 (h) = CDK5/p35 (h) (Homo sapiens (Human), UniProt Q00535); assay: Kinase selectivity panel: CDK5/p35 (h); format: biochemical; settings: 10 μM in duplicate, read-out: % inhibition of control values
Experimental: as §1, §2, §3, §4, §5, §6

ERK1 (h) = ERK1 (h) (Homo sapiens (Human), UniProt P27361); assay: Kinase selectivity panel: ERK1 (h); format: biochemical; settings: 10 μM in duplicate, read-out: % inhibition of control values
Experimental: as §1, §2, §3, §4, §5, §6

TAOK2 (TAO1) (h) = TAOK2 (TAO1) (h) (Homo sapiens (Human), UniProt Q9UL54); assay: Kinase selectivity panel: TAOK2 (TAO1) (h); format: biochemical; settings: 10 μM in duplicate, read-out: % inhibition of control values
Experimental: as §1, §2, §3, §4, §5, §6

| inhibition at 10 µM (DYRK1a (h)) [%] | inhibition at 10 µM (smMLCK (h) (MYLK)) [%] | inhibition at 10 µM (MEK1/MAP2K1 (h)) [%] | inhibition at 10 µM (CDC2/CDK1 (h) (cycB)) [%] | inhibition at 10 µM (IRK (h) (InsR)) [%] | inhibition at 10 µM (GSK3beta (h)) [%] | inhibition at 10 µM (NEK1 (h)) [%] | inhibition at 10 µM (ERK2 (h) (P42mapk)) [%] | inhibition at 10 µM (TRKA (h)) [%] | inhibition at 10 µM (Src kinase (h)) [%] | inhibition at 10 µM (PCTAIRE1 kinase (h)) [%] | IC50 (human GSK-3β) [nM] | inhibition at 10 µM (CDK2 (h) (cycA)) [%] | inhibition at 10 µM (HGK (h) (MAP4K4)) [%] | inhibition at 10 µM (CDK5/p35 (h)) [%] | inhibition at 10 µM (ERK1 (h)) [%] | inhibition at 10 µM (TAOK2 (TAO1) (h)) [%] | Compound | selectivity for GSK-3β compared to the other kinases of the panel (GSK3beta (h)) |
| --- | --- | --- | --- | --- | --- | --- | --- | --- | --- | --- | --- | --- | --- | --- | --- | --- | --- | --- |
| 77 | 1 | 9 | 10 | 0 | 89 | 0 | 9 | 0 | 9 | 27 | 960 | 35 | 10 | 16 | 1 | 9 | CCc1ccc2[nH]nc(C(=O)NCC3CCN(CC(=O)O)CC3)c2c1 [Compound 31, [4-({[(5-ethyl-1H-indazol-3-yl)carbonyl]amino}methyl)piperidin-1-yl]acetic acid] | good selectivity profile |
| 100 | 17 | 75 | 80 | 0 | 100 | 9 | 67 | 3 | 0 | 49 | 30 | 77 | 71 | 77 | 61 | 61 | O=C(O)CN1CCC(CNC(=O)c2n[nH]c3ccc(-c4cccc(F)c4F)cc23)CC1 [Compound 29, {4-[({[5-(2,3-difluorophenyl)-1H-indazol-3-yl]carbonyl}amino)methyl]piperidin-1-yl}acetic acid] | good affinity to GSK-3β when compared to most of other kinases of the same family |
